# How the values were obtained:
# Assay in all cases: MBC (minimum bactericidal concentration) test in Wash NEXT reagent
# Type in all cases: cell-based
# [1] = system: Pseudomonas aeruginosa (AY)
# Protocol: (§1) The stock organisms were thawed and subbed prior to beginning the MBC test. Molds were subbed to SDA plates one week before, and the bacteria were subbed to TAT agar plates 24 hours prior to the start of the test. All plates were incubated at 32 degrees C.
# (§2) Each bacterial organism was inoculated into 40 ml sterile saline in a centrifuge tube to create a density of MacFarland #1. Two serial dilutions of 1:100 were then made, resulting in 10^−2 and 10^−4 concentrations. Each dilution was vortexed before it was sampled, and sterile Eppendorf pipette tips were used to make each transfer. The 10^−4 dilution was spiral plated to yield the initial inoculum concentration.
# (§3) MBC trays were set up with the prepared test reagent. Using a Matrix pipettor, 100 μl aliquots of reagent were distributed into the wells, diluting the amount of preservative from 100% to 10% increments, using unpreserved reagent as the diluent. In one row, 100% non-preserved reagent acted as a positive control and served as a benchmark for a full mat of growth. In well #12H, 100 μl unpreserved reagent was pipetted, and this well was not inoculated with organisms, as it served as the negative control. Once all of the trays were prepared, the prepared bacteria/mold suspensions were poured into the MBC inoculating trays. These were placed onto the reagent trays, and 0.01 ml inoculum was introduced into the 100 μl of reagent in each well.
# (§4) This was done by dipping a sterile cotton swab into each well, and absorbing all of the liquid in the well. The swab was rolled onto a TAT agar plate ensuring that the entire swab touches the agar. Plates ware incubated at 32 degrees C. for 48 hours to 7 days, depending on the organism. Observations for growth were performed by a scoring matrix using + for a full mat, +/− for some growth, a numerical value for an actual colony count, and—for no growth.
# (§5) Below are tables that contain the data obtained in Example 1. The MBC test is scored by (+) indicating a full grown mat of organisms, equivalent to the organisms in the unpreserved reagent. (+/−) indicates there is some kill evident disturbing that mat or bringing the quantities down to an almost countable level. An actual number is the actual number of colonies growing at that concentration of preservative. (−) indicates no growth found. The MBC trays were stored at room temperature for the entire test.
# (§6) The materials and methods and analysis of the MBC test were the same as in Example 1.
# [2] = system: Pseudomonas aeruginosa (L)
# Protocol: as §1, §2, §3, §4, §5, §6
# [3] = system: Pseudomonas fluorescens (D)
# Protocol: as §1, §2, §3, §4, §5, §6
substance,measurement,setting,value
gentamicin,MBC test growth score,"[1]; 10% preservative, 8 hour",+/−
same,MBC test growth score,"[1]; 10% preservative, 24 hour",−
same,MBC test growth score,"[1]; 10% preservative, 48 hour",−
same,MBC test growth score,"[1]; 10% preservative, 72 hour",−
same,MBC test growth score,"[1]; 20% preservative, 8 hour",+/−
same,MBC test growth score,"[1]; 20% preservative, 24 hour",−
same,MBC test growth score,"[1]; 20% preservative, 48 hour",−
same,MBC test growth score,"[1]; 20% preservative, 72 hour",−
same,MBC test growth score,"[1]; 30% preservative, 8 hour",−
same,MBC test growth score,"[1]; 30% preservative, 24 hour",−
same,MBC test growth score,"[1]; 30% preservative, 48 hour",−
same,MBC test growth score,"[1]; 30% preservative, 72 hour",−
same,MBC test growth score,"[1]; 40% preservative, 8 hour",−
same,MBC test growth score,"[1]; 40% preservative, 24 hour",−
same,MBC test growth score,"[1]; 40% preservative, 48 hour",−
same,MBC test growth score,"[1]; 40% preservative, 72 hour",−
same,MBC test growth score,"[1]; 50% preservative, 8 hour",−
same,MBC test growth score,"[1]; 50% preservative, 24 hour",−
same,MBC test growth score,"[1]; 50% preservative, 48 hour",−
same,MBC test growth score,"[1]; 50% preservative, 72 hour",−
same,MBC test growth score,"[1]; 60% preservative, 8 hour",−
same,MBC test growth score,"[1]; 60% preservative, 24 hour",−
same,MBC test growth score,"[1]; 60% preservative, 48 hour",−
same,MBC test growth score,"[1]; 60% preservative, 72 hour",−
same,MBC test growth score,"[1]; 70% preservative, 8 hour",−
same,MBC test growth score,"[1]; 70% preservative, 24 hour",−
same,MBC test growth score,"[1]; 70% preservative, 48 hour",−
same,MBC test growth score,"[1]; 70% preservative, 72 hour",−
same,MBC test growth score,"[1]; 80% preservative, 8 hour",−
same,MBC test growth score,"[1]; 80% preservative, 24 hour",−
same,MBC test growth score,"[1]; 80% preservative, 48 hour",−
same,MBC test growth score,"[1]; 80% preservative, 72 hour",−
same,MBC test growth score,"[1]; 90% preservative, 8 hour",−
same,MBC test growth score,"[1]; 90% preservative, 24 hour",−
same,MBC test growth score,"[1]; 90% preservative, 48 hour",−
same,MBC test growth score,"[1]; 90% preservative, 72 hour",−
same,MBC test growth score,"[1]; 100% preservative, 8 hour",−
same,MBC test growth score,"[1]; 100% preservative, 24 hour",−
same,MBC test growth score,"[1]; 100% preservative, 48 hour",−
same,MBC test growth score,"[1]; 100% preservative, 72 hour",−
same,MBC test growth score,"[2]; 10% preservative, 8 hour",+
same,MBC test growth score,"[2]; 10% preservative, 24 hour",+
same,MBC test growth score,"[2]; 10% preservative, 48 hour",+/−
same,MBC test growth score,"[2]; 10% preservative, 72 hour",8
same,MBC test growth score,"[2]; 20% preservative, 8 hour",+
same,MBC test growth score,"[2]; 20% preservative, 24 hour",+
same,MBC test growth score,"[2]; 20% preservative, 48 hour",+/−
same,MBC test growth score,"[2]; 20% preservative, 72 hour",4
same,MBC test growth score,"[2]; 30% preservative, 8 hour",+
same,MBC test growth score,"[2]; 30% preservative, 24 hour",+/−
same,MBC test growth score,"[2]; 30% preservative, 48 hour",+/−
same,MBC test growth score,"[2]; 30% preservative, 72 hour",2
same,MBC test growth score,"[2]; 40% preservative, 8 hour",+
same,MBC test growth score,"[2]; 40% preservative, 24 hour",+/−
same,MBC test growth score,"[2]; 40% preservative, 48 hour",+/−
same,MBC test growth score,"[2]; 40% preservative, 72 hour",1
same,MBC test growth score,"[2]; 50% preservative, 8 hour",+
same,MBC test growth score,"[2]; 50% preservative, 24 hour",+/−
same,MBC test growth score,"[2]; 50% preservative, 48 hour",+/−
same,MBC test growth score,"[2]; 50% preservative, 72 hour",−
same,MBC test growth score,"[2]; 60% preservative, 8 hour",+/−
same,MBC test growth score,"[2]; 60% preservative, 24 hour",+/−
same,MBC test growth score,"[2]; 60% preservative, 48 hour",+/−
same,MBC test growth score,"[2]; 60% preservative, 72 hour",−
same,MBC test growth score,"[2]; 70% preservative, 8 hour",+/−
same,MBC test growth score,"[2]; 70% preservative, 24 hour",+/−
same,MBC test growth score,"[2]; 70% preservative, 48 hour",+/−
same,MBC test growth score,"[2]; 70% preservative, 72 hour",−
same,MBC test growth score,"[2]; 80% preservative, 8 hour",+/−
same,MBC test growth score,"[2]; 80% preservative, 24 hour",+/−
same,MBC test growth score,"[2]; 80% preservative, 48 hour",+/−
same,MBC test growth score,"[2]; 80% preservative, 72 hour",−
same,MBC test growth score,"[2]; 90% preservative, 8 hour",+/−
same,MBC test growth score,"[2]; 90% preservative, 24 hour",+/−
same,MBC test growth score,"[2]; 90% preservative, 48 hour",−
same,MBC test growth score,"[2]; 90% preservative, 72 hour",−
same,MBC test growth score,"[2]; 100% preservative, 8 hour",+/−
same,MBC test growth score,"[2]; 100% preservative, 24 hour",+/−
same,MBC test growth score,"[2]; 100% preservative, 48 hour",−
same,MBC test growth score,"[2]; 100% preservative, 72 hour",−
same,MBC test growth score,"[3]; 10% preservative, 8 hour",+
same,MBC test growth score,"[3]; 10% preservative, 24 hour",+
same,MBC test growth score,"[3]; 10% preservative, 48 hour",+/−
same,MBC test growth score,"[3]; 10% preservative, 72 hour",15
same,MBC test growth score,"[3]; 20% preservative, 8 hour",+
same,MBC test growth score,"[3]; 20% preservative, 24 hour",+
same,MBC test growth score,"[3]; 20% preservative, 48 hour",+/−
same,MBC test growth score,"[3]; 20% preservative, 72 hour",12
same,MBC test growth score,"[3]; 30% preservative, 8 hour",+
same,MBC test growth score,"[3]; 30% preservative, 24 hour",+/−
same,MBC test growth score,"[3]; 30% preservative, 48 hour",+/−
same,MBC test growth score,"[3]; 30% preservative, 72 hour",−
same,MBC test growth score,"[3]; 40% preservative, 8 hour",+
same,MBC test growth score,"[3]; 40% preservative, 24 hour",+/−
same,MBC test growth score,"[3]; 40% preservative, 48 hour",+/−
same,MBC test growth score,"[3]; 40% preservative, 72 hour",−
same,MBC test growth score,"[3]; 50% preservative, 8 hour",+/−
same,MBC test growth score,"[3]; 50% preservative, 24 hour",14
same,MBC test growth score,"[3]; 50% preservative, 48 hour",+/−
same,MBC test growth score,"[3]; 50% preservative, 72 hour",−
same,MBC test growth score,"[3]; 60% preservative, 8 hour",+/−
same,MBC test growth score,"[3]; 60% preservative, 24 hour",13
same,MBC test growth score,"[3]; 60% preservative, 48 hour",+/−
same,MBC test growth score,"[3]; 60% preservative, 72 hour",−
same,MBC test growth score,"[3]; 70% preservative, 8 hour",+/−
same,MBC test growth score,"[3]; 70% preservative, 24 hour",5
same,MBC test growth score,"[3]; 70% preservative, 48 hour",−
same,MBC test growth score,"[3]; 70% preservative, 72 hour",−
same,MBC test growth score,"[3]; 80% preservative, 8 hour",+/−
same,MBC test growth score,"[3]; 80% preservative, 24 hour",5
same,MBC test growth score,"[3]; 80% preservative, 48 hour",−
same,MBC test growth score,"[3]; 80% preservative, 72 hour",−
same,MBC test growth score,"[3]; 90% preservative, 8 hour",+/−
same,MBC test growth score,"[3]; 90% preservative, 24 hour",1
same,MBC test growth score,"[3]; 90% preservative, 48 hour",−
same,MBC test growth score,"[3]; 90% preservative, 72 hour",−
same,MBC test growth score,"[3]; 100% preservative, 8 hour",+/−
same,MBC test growth score,"[3]; 100% preservative, 24 hour",−
same,MBC test growth score,"[3]; 100% preservative, 48 hour",−
same,MBC test growth score,"[3]; 100% preservative, 72 hour",−
